# Several values for one entry are separate records, joined by “and”; a condition that tells them apart may be missing. Equal entries are not always repeated. Where two headings read alike, the source gives them in different places.
# Columns and labels:
# [1] = system: human cervical carcinoma cells (HeLa); experiment: Cell proliferation inhibition
# [2] = DPPH radical scavenging test; details: mean ± SEM; for DPPH (% Inhibition): tested at 1 mg/mL
# [3] = system: vesicular stomatitis virus; experiment: microbe, parasite or virus in culture; format: cell-based; details: HeLa, read-out: Antiviral EC50
# Trichophyton tonsurans = experiment: Antidermatophyte plaque growth inhibition; format: cell-based; details: for inhibition at 100 µg/mL: read-out: Percent growth inhibition
# [4] = system: herpes simplex virus-1 (KOS); experiment: Antiviral activity in HEL cell cultures (CPE, MTS); format: cell-based; details: Human alphaherpesvirus 1, HEL cells
# [5] = system: herpes simplex virus-2 (G); experiment: Antiviral activity in HEL cell cultures (CPE, MTS); format: cell-based; details: Human alphaherpesvirus 2; Herpes simplex virus-2, HEL cells
# Coxsackie virus B4 = experiment: Antiviral activity in HeLa cell cultures (CPE, MTS); format: cell-based; details: Enterovirus B; Coxsackie virus B4, HeLa cells
# [6] = UV filtering parameters of compounds in solution (MeOH, 290-400 nm)
# [7] = system: Candida albicans (ATCC 10231); experiment: Anti-Candida albicans broth microdilution MIC; details: Candida albicans, ATCC10231, 24 h
# [8] = system: Respiratory syncytial virus; experiment: microbe, parasite or virus in culture; format: cell-based; details: human respiratory syncytial virus, HeLa cells, read-out: Antiviral EC50
# Epidermophyton floccosum = experiment: Antidermatophyte plaque growth inhibition; format: cell-based; details: for inhibition at 100 µg/mL: read-out: Percent growth inhibition
# [9] = system: human pancreatic carcinoma cells (Mia Paca-2); experiment: Cell proliferation inhibition
# Microsporum gypseum = experiment: Antidermatophyte plaque growth inhibition; format: cell-based; details: Nannizzia gypsea; for inhibition at 100 µg/mL: read-out: Percent growth inhibition
# vaccinia virus = experiment: microbe, parasite or virus in culture; format: cell-based; details: Orthopoxvirus vaccinia, HEL, read-out: Antiviral EC50
# [10] = Ferric reducing antioxidant power (FRAP) test; details: mean ± SEM
# Adeno virus-2 = experiment: Antiviral activity in HEL cell cultures (CPE, MTS); format: cell-based; details: Adeno virus-2, HEL cells
# [11] = system: HEK293T (Normal Kidney Epithelial Cells); experiment: Cell proliferation inhibition, non-cancer control cells; details: Homo sapiens, HEK-293T
# [12] = system: human T-lymphocyte cells (CEM); experiment: Cell proliferation inhibition
# Human Coronavirus (229E) = experiment: microbe, parasite or virus in culture; format: cell-based; details: HEL, read-out: Antiviral EC50
# [13] = system: human embryonic lung (HEL) cell cultures
# [14] = system: herpes simplex virus-1 TK-KOS ACVr; experiment: microbe, parasite or virus in culture; format: cell-based; details: Human alphaherpesvirus 1, HEL, read-out: Antiviral EC50
# HeLa cell cultures = details: human
# [15] = system: M. gypseum, M. canis, T. mentagrophytes, T. tonsurans and E. floccosum; experiment: Antidermatophyte activity, all five dermatophytes taken together; format: cell-based; details: for inhibition at 100 µg/mL: read-out: Percentage of growth inhibition over the five dermatophytes
# [16] = system: Trichophyton mentagrophytes; experiment: Antidermatophyte plaque growth inhibition; format: cell-based; details: for inhibition at 100 µg/mL: read-out: Percent growth inhibition
# Microsporum canis = experiment: Antidermatophyte plaque growth inhibition; format: cell-based; details: for inhibition at 100 µg/mL: read-out: Percent growth inhibition
# [17] = system: human melanoma cells (SK-Mel 5); experiment: Cell proliferation inhibition
# [18] = Photostability of formulations, solar simulator; details: formulation on PMMA plates
# [19] = UV filtering parameters of cosmetic formulation on PMMA plates (modified Diffey-Robson); format: physicochemical
# [20] = T. tonsurans, 100 µg/mL, '+' has no key
# [21] = E. floccosum, 100 µg/mL, '+' has no key
# [22] = M. gypseum, 100 µg/mL, '+' has no key
# [23] = 100 µg/mL, all five dermatophytes
# [24] = T. mentagrophytes, 100 µg/mL, '+' has no key
# [25] = M. canis, 100 µg/mL, '+' has no key
# [26] = after solar simulator irradiation
structure (smiles),measurement,setting,value
"O=S(=O)(O)c1ccc2[nH]c(-c3ccc[nH]3)nc2c1 [Compound 7, 2-(1H-pyrrol-2-yl)-1H-benzimidazole-5-sulfonic Acid]",IC50,[1],> 100 µM
same,DPPH IC50,[2],1093.09 ± 8.65 µg/mL
same,EC50,[3],> 100 µM
same,inhibition at 100 µg/mL,Trichophyton tonsurans; [20],56.6 ± 4.04%
same,EC50,[4],> 100 µM
same,EC50,[5],> 100 µM
same,EC50,Coxsackie virus B4,> 100 µM
same,SPF,[6],5.43±0.39
same,UVA/UVB,[6],0.2
same,UVAPF,[6],1.22±0.03
same,λc (critical wavelength),[6],345 nm
same,MIC,[7],64 µg/mL
same,EC50,[8],> 100 µM
same,inhibition at 100 µg/mL,Epidermophyton floccosum; [21],52.5 ± 6.58%
same,IC50,[9],28 ± 10 µM
same,inhibition at 100 µg/mL,Microsporum gypseum; [22],73 ± 3.67%
same,EC50,vaccinia virus,> 100 µM
same,FRAP,[10],239.91 ± 1.79 µmolTE/g
same,EC50,Adeno virus-2,> 100 µM
same,IC50,[11],67 ± 47 µM
same,IC50,[12],31 ± 21 µM
same,EC50,Human Coronavirus (229E),> 100 µM
same,Cytotoxic concentration,[13],> 100 µM
same,EC50,[14],> 100 µM
same,Cytotoxic concentration,HeLa cell cultures,> 100 µM
same,inhibition at 100 µg/mL,[15]; [23],50 to 79%
same,inhibition at 100 µg/mL,[16]; [24],69 ± 1.84%
same,melting point,,> 250 °C
same,inhibition at 100 µg/mL,Microsporum canis; [25],72.1 ± 7.51%
same,IC50,[17],> 100 µM
"O=S(=O)(O)c1ccc2[nH]c(-c3cccs3)nc2c1 [Compound 9, 2-(thiophen-2-yl)-1H-benzimidazole-5-sulfonic Acid]",IC50,[1],> 100 µM
same,DPPH (% Inhibition),[2],12.52 ± 0.88%
same,EC50,[3],> 100 µM
same,inhibition at 100 µg/mL,Trichophyton tonsurans; [20],50.8 ± 2.11%
same,EC50,[4],> 100 µM
same,EC50,[5],> 100 µM
same,EC50,Coxsackie virus B4,> 100 µM
same,SPF,[6],4.72±0.17
same,UVA/UVB,[6],0.48
same,UVAPF,[6],1.43±0.09
same,λc (critical wavelength),[6],339 nm
same,MIC,[7],64 µg/mL
same,EC50,[8],> 100 µM
same,inhibition at 100 µg/mL,Epidermophyton floccosum; [21],50 ± 3.26%
same,IC50,[9],43 ± 14 µM
same,inhibition at 100 µg/mL,Microsporum gypseum; [22],59.8 ± 6.12%
same,EC50,vaccinia virus,> 100 µM
same,FRAP,[10],82.16 ± 0.22 µmolTE/g
same,EC50,Adeno virus-2,> 100 µM
same,IC50,[11],> 100 µM
same,IC50,[12],34 ± 2 µM
same,EC50,Human Coronavirus (229E),> 100 µM
same,Cytotoxic concentration,[13],> 100 µM
same,EC50,[14],> 100 µM
same,Cytotoxic concentration,HeLa cell cultures,> 100 µM
same,inhibition at 100 µg/mL,[15]; [23],50 to 79%
same,inhibition at 100 µg/mL,[16]; [24],57.3 ± 1.09%
same,melting point,,> 250 °C
same,inhibition at 100 µg/mL,Microsporum canis; [25],65.9 ± 3.21%
same,IC50,[17],> 100 µM
"c1coc(-c2nc3ccccc3[nH]2)c1 [Compound 11, 2-(furan-2-yl)-1H-benzimidazole]",IC50,[1],> 100 µM
same,DPPH (% Inhibition),[2],15.46 ± 0.98%
same,EC50,[3],> 100 µM
same,IC50,Trichophyton tonsurans,1.89 ± 0.22 µg/mL
same,inhibition at 100 µg/mL,Trichophyton tonsurans,94.7 ± 5.63%
same,EC50,[4],> 100 µM
same,EC50,[5],> 100 µM
same,EC50,Coxsackie virus B4,> 100 µM
same,% SPFeff (residual in vitro SPF after irradiation),[18]; [26],less than 80%
same,% UVA-PFeff (residual UVA-PF after irradiation),[18]; [26],less than 80%
same,Photostability (in words),"[18]; irradiated with solar simulator, photostable if % SPF and % PF-UVA at least 80%",photoinstable
same,SPF,[6],20.06±3.04
same,UVA/UVB,[6],0.3
same,UVAPF,[6],1.05±0.06
same,λc (critical wavelength),[6],333 nm
same,EC50,[8],> 100 µM
same,IC50,Epidermophyton floccosum,2.44 ± 0.05 µg/mL
same,inhibition at 100 µg/mL,Epidermophyton floccosum,97.9 ± 4.23%
same,IC50,[9],> 100 µM
same,IC50,Microsporum gypseum,1.54 ± 0.02 µg/mL
same,inhibition at 100 µg/mL,Microsporum gypseum,99 ± 0.28%
same,SPF,[19]; 1% in formulation,6.84
same,UVA/UVB,[19]; 1% in formulation,0.69
same,UVAPF,[19]; 1% in formulation,1.94
same,λc,[19]; 1% in formulation,368 nm
same,SPF,[19]; 2% in formulation,10.39
same,UVA/UVB,[19]; 2% in formulation,0.13
same,UVAPF,[19]; 2% in formulation,1.53
same,λc,[19]; 2% in formulation,366 nm
same,SPF,[19]; 3% in formulation,11.15
same,UVA/UVB,[19]; 3% in formulation,0.18
same,UVAPF,[19]; 3% in formulation,1.82
same,λc,[19]; 3% in formulation,371 nm
same,EC50,vaccinia virus,> 100 µM
same,FRAP,[10],4462.64 µmolTE/g and 4462.64 ± 18.29 µmolTE/g
same,EC50,Adeno virus-2,> 100 µM
same,IC50,[11],> 100 µM
same,IC50,[12],> 100 µM
same,EC50,Human Coronavirus (229E),> 100 µM
same,Cytotoxic concentration,[13],> 100 µM
same,EC50,[14],> 100 µM
same,Cytotoxic concentration,HeLa cell cultures,> 100 µM
same,Activity on dermatophytes (in words),[15]; 100 µg/mL,fungicide activity
same,IC50,[15]; read-out: IC50 range over the five dermatophytes,0.97 to 3.8 µg/mL
same,inhibition at 100 µg/mL,[15],~100%
same,IC50,[16],1.61 ± 0.1 µg/mL
same,inhibition at 100 µg/mL,[16],97.2 ± 4.53%
same,IC50,Microsporum canis,1.58 ± 0.06 µg/mL
same,inhibition at 100 µg/mL,Microsporum canis,98.3 ± 2.03%
same,IC50,[17],> 100 µM
